From patent USRE47689E1, “Compounds for treating spinal muscular atrophy” (PTC Therapeutics, Inc., priority 2011, dated 2019)

Legend:
[1] = test system: SMN2 minigene (full length SMN2 minigene mRNA containing SMN2 exon 7); assay: SMN2 minigene mRNA splicing RT-qPCR assay in cultured cells; format: cell-based, human; settings: Homo sapiens, HEK293-H; HEK293H cells stably transfected with SMN2-A minigene; 24 hours; 7-point concentration curve; 1.5-fold relative to vehicle-treated cells; read-out: EC1.5x for production of full length SMN2 mRNA
Procedure, shortened: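 Read-out: full-length (exon 7-included) SMN2 minigene mRNA by multiplex RT-qPCR with GAPDH, efficiency-corrected (1+E)^−Ct, GAPDH-normalized and divided by vehicle. Stably transfected HEK293H cells, 24 h compound exposure, duplicates per concentration. Value is EC1.5x, reported as star ranges.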

Smn protein = Smn protein assay in cultured cells (SMN HTRF); format: cell-based, human; settings: 48 hours; for EC1.5x (concentration giving 1.5-fold Smn protein increase): SMA Type 1 patient fibroblast cells (GM03813), 7-point concentration curve, SMN HTRF, concentration producing 1.5 times Smn protein vs DMSO vehicle control, read-out: EC1.5x for Smn protein expression; for maximum fold (Fold) increase of Smn protein: SMA patient fibroblast cells, 7-point concentration data, fold increase relative to vehicle control (SMN HTRF)
Procedure, shortened: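 Lysates in RIPA with protease inhibitors are incubated overnight at room temperature with HTRF anti-SMN antibodies. EC1.5x is derived from fold increase in ΔF over vehicle.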

Row | SMILES | melting point [°C] | EC (1.5-fold) [1] [µM] | EC1.5x (concentration giving 1.5-fold Smn protein increase) (Smn protein) [nM] | maximum fold (Fold) increase of Smn protein (Smn protein)
1 | Cc1cn2cc(-c3cc4ccc(N5CC[C@H](N(C)C)C5)cc4oc3=O)cc2cn1 [Compound 666, 7-[(3S)-3-(dimethylamino)pyrrolidin-1-yl]-3-(3-methylpyrrolo[1,2-a]pyrazin-7-yl)-2H-chromen-2-one] | 200 to 204 | < 0.1 | < 300 | **** (fold increase between >1.5 and ≤1.65)
2 | Cc1nccn2cc(-c3cc4ccc(N5CCN(C)CC5)cc4oc3=O)cc12 [Compound 557, 7-(4-methylpiperazin-1-yl)-3-(1-methylpyrrolo[1,2-a]pyrazin-7-yl)-2H-chromen-2-one] | 190 to 192 | 0.3 to 1 | – | *** (fold increase between >1.35 and ≤1.5)
3 | Cc1nccn2cc(-c3cc4ccc(N5CCN[C@H](C)C5)cc4oc3=O)cc12 [Compound 586, 7-[(3R)-3-methylpiperazin-1-yl]-3-(1-methylpyrrolo[1,2-a]pyrazin-7-yl)-2H-chromen-2-one] | 212 to 215 | < 0.1 | < 300 | *** (fold increase between >1.35 and ≤1.5)
4 | C[C@@H]1CN(c2ccc3cc(-c4cn5cc(C6CC6)cc(F)c5n4)c(=O)oc3c2)C[C@H](C)N1 [Compound 497, 3-(6-cyclopropyl-8-fluoroimidazo[1,2-a]pyridin-2-yl)-7-[(3R,5S)-3,5-dimethylpiperazin-1-yl]-2H-chromen-2-one] | 257 to 267 | 0.3 to 1 | – | * (maximum fold increase of ≤1.2)
5 | Cc1cc2cc(-c3cc4ccc(N5CCN(C)[C@H](C)C5)cc4oc3=O)oc2c(C)n1 [Compound 807, 3-(5,7-dimethylfuro[2,3-c]pyridin-2-yl)-7-[(3R)-3,4-dimethylpiperazin-1-yl]-2H-chromen-2-one] | 199 to 204 | < 0.1 | < 300 | ***** (fold increase >1.65)
6 | Cc1cn2cc(-c3cc4ccc(OC5CCN(CCO)CC5)cc4oc3=O)nc2c(C)n1 [Compound 899, 3-(6,8-dimethylimidazo[1,2-a]pyrazin-2-yl)-7-{[1-(2-hydroxyethyl)piperidin-4-yl]oxy}-2H-chromen-2-one] | 165 to 168 | < 0.1 | < 300 | ***** (fold increase >1.65)
7 | Cc1cn2cc(-c3cc4ccc(N5CCN6CCCCC6C5)cc4oc3=O)cc2c(C)n1 (centres unmarked) [Compound 683, 3-(1,3-dimethylpyrrolo[1,2-a]pyrazin-7-yl)-7-(octahydro-2H-pyrido[1,2-a]pyrazin-2-yl)-2H-chromen-2-one] | 145 to 148 | < 0.1 | < 300 | **** (fold increase between >1.5 and ≤1.65)
8 | Cc1cn2cc(-c3cc4ccc(N5CCN(C6COC6)CC5)cc4oc3=O)nc2cn1 [Compound 839, 3-(6-methylimidazo[1,2-a]pyrazin-2-yl)-7-[4-(oxetan-3-yl)piperazin-1-yl]-2H-chromen-2-one] | 273 to 276 | 0.1 to 0.3 | 300 to 1000 | **** (fold increase between >1.5 and ≤1.65)
9 | Cc1cn2cc(-c3cc4ccc(N5CCN(C)C(C)(C)C5)cc4oc3=O)nc2c(C)n1 [Compound 737, 3-(6,8-dimethylimidazo[1,2-a]pyrazin-2-yl)-7-(3,3,4-trimethylpiperazin-1-yl)-2H-chromen-2-one] | 185 to 187 | < 0.1 | < 300 | ***** (fold increase >1.65)
10 | CCN1CCC[C@@H]2CN(c3ccc4cc(-c5cn6cc(C)nc(C)c6n5)c(=O)oc4c3)C[C@@H]21 [Compound 786, 3-(6,8-dimethylimidazo[1,2-a]pyrazin-2-yl)-7-[(4aR,7aR)-1-ethyloctahydro-6H-pyrrolo[3,4-b]pyridin-6-yl]-2H-chromen-2-one] | 215 to 221 | < 0.1 | < 300 | **** (fold increase between >1.5 and ≤1.65)
11 | Cc1cn2cc(-c3cc4ccc(N5CCC(N(C)C)CC5)cc4oc3=O)cc2c(C)n1 [Compound 715, 7-[4-(dimethylamino)piperidin-1-yl]-3-(1,3-dimethylpyrrolo[1,2-a]pyrazin-7-yl)-2H-chromen-2-one] | 192 to 195 | < 0.1 | – | ** (fold increase between >1.2 and ≤1.35)
12 | Cc1cn2cc(-c3cc4ccc(N5CCN(CCO)CC5)cc4oc3=O)cc2cn1 [Compound 684, 7-[4-(2-hydroxyethyl)piperazin-1-yl]-3-(3-methylpyrrolo[1,2-a]pyrazin-7-yl)-2H-chromen-2-one] | 212 to 215 | < 0.1 | < 300 | **** (fold increase between >1.5 and ≤1.65)
13 | Cc1csc2nc(-c3cc4ccc(N5CCN(C)CC5)cc4oc3=O)cn12 [Compound 185, 3-(3-methylimidazo[2,1-b][1,3]thiazol-6-yl)-7-(4-methylpiperazin-1-yl)-2H-chromen-2-one] | 213 to 216 | 3 to 30 | – | * (maximum fold increase of ≤1.2)
14 | C[C@@H]1CN(c2ccc3cc(-c4ccc5c(c4)OCO5)c(=O)oc3c2)CCN1 [Compound 488, 3-(1,3-benzodioxol-5-yl)-7-[(3R)-3-methylpiperazin-1-yl]-2H-chromen-2-one] | 135 to 137 | 3 to 30 | – | * (maximum fold increase of ≤1.2)
15 | Cc1cn2cc(-c3cc4ccc(O[C@@H]5CCN(C)C5)cc4oc3=O)nc2c(C)n1 [Compound 889, 3-(6,8-dimethylimidazo[1,2-a]pyrazin-2-yl)-7-{[(3R)-1-methylpyrrolidin-3-yl]oxy}-2H-chromen-2-one] | 195 to 202 | < 0.1 | < 300 | ***** (fold increase >1.65)
16 | Cl.O=c1oc2cc(N3CCCNCC3)ccc2cc1-c1cn2cccnc2n1 [Compound 186, 7-(1,4-diazepan-1-yl)-3-(imidazo[1,2-a]pyrimidin-2-yl)-2H-chromen-2-one hydrochloride] | > 300 | 0.1 to 0.3 | 1000 to 3000 | *** (fold increase between >1.35 and ≤1.5)

The next lines start with results.

Row | melting point [°C] | SMILES | EC (1.5-fold) [1] [µM] | EC1.5x (concentration giving 1.5-fold Smn protein increase) (Smn protein) [nM] | maximum fold (Fold) increase of Smn protein (Smn protein)
17 | 222 | Cc1ccn2cc(-c3cc4ccc(N5CCN[C@H](C)C5)cc4oc3=O)nc2c1 [Compound 214, 3-(7-methylimidazo[1,2-a]pyridin-2-yl)-7-[(3R)-3-methylpiperazin-1-yl]-2H-chromen-2-one] | 0.3 to 1 | – | ** (fold increase between >1.2 and ≤1.35)
18 | 253 to 263 | CCc1ccn2cc(-c3cc4ccc(N5CCNCC5)cc4oc3=O)nc2c1 [Compound 287, 3-(7-ethylimidazo[1,2-a]pyridin-2-yl)-7-(piperazin-1-yl)-2H-chromen-2-one] | 0.3 to 1 | – | * (maximum fold increase of ≤1.2)
19 | 231 to 238 | Cc1cc(F)c2nc(-c3cc4ccc(N[C@@H]5CCNC5)cc4oc3=O)cn2c1 [Compound 583, 3-(8-fluoro-6-methylimidazo[1,2-a]pyridin-2-yl)-7-[(3R)-pyrrolidin-3-ylamino]-2H-chromen-2-one] | 0.3 to 1 | – | ** (fold increase between >1.2 and ≤1.35)
20 | 156 to 159 | Cc1ccn2cc(-c3cc4ccc(NCCN(C)C)cc4oc3=O)nc2c1 [Compound 470, 7-{[2-(dimethylamino)ethyl]amino}-3-(7-methylimidazo[1,2-a]pyridin-2-yl)-2H-chromen-2-one] | 1 to 3 | – | * (maximum fold increase of ≤1.2)
21 | 212 to 215 | COc1cccn2cc(-c3cc4ccc(N5CCCN(C)CC5)cc4oc3=O)nc12 [Compound 419, 3-(8-methoxyimidazo[1,2-a]pyridin-2-yl)-7-(4-methyl-1,4-diazepan-1-yl)-2H-chromen-2-one] | 0.3 to 1 | – | ** (fold increase between >1.2 and ≤1.35)
22 | 200 to 207 | Cc1cn2cc(-c3cc4ccc(N[C@@H]5CCN(C(C)C)C5)cc4oc3=O)nc2c(C)n1 [Compound 733, 3-(6,8-dimethylimidazo[1,2-a]pyrazin-2-yl)-7-{[(3R)-1-(propan-2-yl)pyrrolidin-3-yl]amino}-2H-chromen-2-one] | < 0.1 | – | *** (fold increase between >1.35 and ≤1.5)
23 | 258 to 261 | Cc1cnc2nc(-c3cc4ccc(N5CCN[C@H](C)C5)cc4oc3=O)cn2c1 [Compound 463, 3-(6-methylimidazo[1,2-a]pyrimidin-2-yl)-7-[(3R)-3-methylpiperazin-1-yl]-2H-chromen-2-one] | 0.1 to 0.3 | – | * (maximum fold increase of ≤1.2)
